Source: US4102994A, “Aliphatic amido-quaternary ammonium anti-microbial compounds” (Colgate-Palmolive Company, priority 1977, dated 1978)
Where two headings read alike, the source gives them in different places.

How the values were obtained:
[1] = system: A. naeslundii; assay: Test tube serial dilution test (minimal inhibitory concentration); format: cell-based, Actinomycetes naeslundii; conditions: Actinomyces naeslundii, broth serial dilution, read-out: Minimum Inhibitory Concentration
Experimental: (§1) The anti-microbial nature of the instant novel compounds was shown by a standard test tube serial dilution test in which an appropriate number of test tubes of broth containing decreasing concentrations of the test agent was innoculated with the test organism. After a suitable period of incubation, the tubes were examined for the presence or absence of growth. The activity of the test agent was the lowest concentration which inhibited the growth of the organism and is expressed as the minimal inhibitory concentration in ppm. As shown in the following table of antimicrobial data, a definite break occurs between compounds wherein R^4 contains 8 carbons and 10 carbons.

[2] = system: T. mentagrophytes; assay: as above; format: cell-based, Trichophyton mentogrophytes; conditions: Trichophyton mentagrophytes
Experimental: as §1

[3] = system: Str. sanguis; assay: as above; format: cell-based; conditions: Streptococcus, broth serial dilution, read-out: Minimum Inhibitory Concentration
Experimental: as §1

[4] = system: S. aureus; assay: as above; format: cell-based; conditions: Staphylococcus aureus
Experimental: as §1

[5] = system: Str. mutans; assay: as above; format: cell-based; conditions: Streptococcus mutans, broth serial dilution, read-out: Minimum Inhibitory Concentration
Experimental: as §1

[6] = system: E. coli; assay: as above; format: cell-based; conditions: Escherichia coli
Experimental: as §1

[7] = system: C. albicans; assay: as above; format: cell-based; conditions: Candida albicans
Experimental: as §1

[8] = system: A. niger; assay: as above; format: cell-based; conditions: Aspergillus niger, broth serial dilution, read-out: Minimum Inhibitory Concentration
Experimental: as §1

[9] = system: P. aeruginosa; assay: as above; format: cell-based; conditions: Pseudomonas aeruginosa, broth serial dilution, read-out: Minimum Inhibitory Concentration
Experimental: as §1

[10] = system: Str. mitis; assay: as above; format: cell-based; conditions: Streptococcus mitis
Experimental: as §1

[11] = system: dental calculus; assay: Dental calculus inhibition in rats on Zipkin-McClure calculus producing diet, Baer's method; format: in vivo, littermated albino rats; conditions: .1% test solution, teeth swabbed thirty seconds each day for six weeks, vs water control, 99% significant
Text: The quaternary ammonium amides of adamantanecarboxylic acid are particularly effective in inhibiting the development of dental calculus as shown by the results of tests on littermated albino rats, in groups of 15 males and 15 females who were fed a Zipkin-McClure calculus producing diet. For six weeks the teeth of each animal were swabbed for thirty seconds each day with a test solution or water for the control group. The animals were then sacrificed, defleshed and scored by Baer's method for calculus. The results were analyzed by Student's "t" test and in the results quoted were 99% significant.

[12] = T. mentagrophytes, broth serial dilution, read-out: Minimum Inhibitory Concentration
[13] = S. aureus, broth serial dilution, read-out: Minimum Inhibitory Concentration
[14] = E. coli, broth serial dilution, read-out: Minimum Inhibitory Concentration
[15] = C. albicans, broth serial dilution, read-out: Minimum Inhibitory Concentration
[16] = Str. mitis, broth serial dilution, read-out: Minimum Inhibitory Concentration
[17] = Table III, no quantity or unit printed in the table, minimal inhibitory concentration in ppm, read-out: antimicrobial results, T.mentagrophytes (Table III)
[18] = read-out: antimicrobial results, S.aureus (Table III)
[19] = Table III, no quantity or unit printed in the table, minimal inhibitory concentration in ppm, read-out: antimicrobial results, E.coli (Table III)
[20] = Table III, no quantity or unit printed in the table, minimal inhibitory concentration in ppm, read-out: antimicrobial results, C.albicans (Table III)
[21] = Table III, no quantity or unit printed in the table, minimal inhibitory concentration in ppm, read-out: antimicrobial results, S.mitis (Table III)

Work on `CCCCCCCCCCCCCC[N+](C)(C)CCCNC(=O)[C@H]1CC[C@@H]2CCC[C@@H]21` (relative stereo) [Comp.14, 3-(exo,cis-Bicyclooctane-2-carboxamido)propyltetradecyl dimethyl ammonium bromide] yielded an MIC [1] of less than 0.05 µg/mL, an MIC [2, 12] of 3.12 µg/mL and an MIC [3] of 6.25 µg/mL. It also gave an MIC [4, 13] of 0.78 µg/mL, an MIC [5] of less than 0.05 µg/mL and an MIC [6, 14] of 50 µg/mL. The MIC [7, 15] was 3.12 µg/mL, the MIC [8] was 25 µg/mL and the MIC [9] was 50 µg/mL.

Molecule `CCCCCCCCCCCC[N+](C)(C)CCCNC(=O)[C@H]1CC[C@@H]2CCC[C@@H]21` (relative stereo) [Comp.15] has an MIC [1] of 0.19 µg/mL, an MIC [2, 12] of 6.25 µg/mL and an MIC [3] of 3.12 µg/mL. It also gave an MIC [4, 13] of 1.56 µg/mL, an MIC [5] of 0.1 µg/mL and an MIC [6, 14] of 25 µg/mL. The MIC [7, 15] was 3.12 µg/mL, the MIC [8] was 25 µg/mL and the MIC [9] was 25 µg/mL.

In the case of `CCCCCCCCCC[N+](C)(C)CCCNC(=O)CCCCCCC.[I-]` [Comp.3, 3-Octaneamidopropyldimethyldecyl ammonium iodide], the MIC [1] is reported as 12.5 µg/mL, the MIC [2, 12] is reported as 12.5 µg/mL and the MIC [3] is reported as 6.25 µg/mL. For the same molecule, the MIC [4, 13] was 12.5 µg/mL, the MIC [5] was 0.78 µg/mL and the MIC [6, 14] was 50 µg/mL. It also gave an MIC [7, 15] of 6.25 µg/mL, an MIC [8] of 25 µg/mL and an MIC [9] of 25 µg/mL.

For `CCCCCCCCCCCC[N+](C)(C)CCCNC(=O)C12CC3CC(CC(C3)C1)C2` [Comp.9, 3-(1'-adamantanecarboxamido)propyldimethyldodecyl ammonium bromide], the MIC [2, 12] was 12.5 µg/mL, the MIC [4, 13] was 0.78 µg/mL and the MIC [6, 14] was 50 µg/mL. For the same molecule, the MIC [7, 15] was 6.25 µg/mL, the MIC [8] was 25 µg/mL and the MIC [10, 16] was 0.39 µg/mL.

`CCCCCCCCCCCCCC[N+](C)(C)CCCNC(=O)C12CC3CC(CC(C3)C1)C2` [Comp.10, 3-(1'-adamantanecarboxamido)propyldimethyltetradecyl ammonium bromide] was tested, and the “Calculus Reduction, Females” value ([11]; females) was 6.27%, the “Calculus Reduction, Males” value ([11]; males) was 43.43% and the MIC [2, 12] was 25 µg/mL. It also gave an MIC [4, 13] of 0.39 µg/mL, an MIC [6, 14] of 25 µg/mL and an MIC [7, 15] of 6.25 µg/mL. It also gave an MIC [8] of 50 µg/mL and an MIC [10, 16] of 0.39 µg/mL.

`CCCCCCCCCCCCCC[N+](C)(C)CCCNC(=O)C1CC2CCC1C2` (centres unmarked) [Comp.16, 3-(2'-norbornanecarboxamido)propyltetradecyldimethyl ammonium bromide] showed an MIC [1] of 0.1 µg/mL, an MIC [2, 12] of 6.25 µg/mL and an MIC [3] of 1.56 µg/mL. For the same molecule, the MIC [4, 13] was 1.56 µg/mL, the MIC [5] was 0.1 µg/mL and the MIC [6, 14] was 50 µg/mL. The MIC [7, 15] was 3.12 µg/mL, the MIC [8] was 25 µg/mL and the MIC [9] was 50 µg/mL.

Molecule `CCCCCCCCCCCCCC[N+](C)(C)CCCNC(=O)C(CC)CCCC` (centres unmarked) [R *C7 (branch), R^4 C14, X Cl] has an MIC [2, 17] of 6.25 µg/mL, an MIC [4, 18] of 0.78 µg/mL and an MIC [6, 19] of 50 µg/mL. The MIC [7, 20] was 3.12 µg/mL and the MIC [10, 21] was 1.56 µg/mL.

Molecule `CCCCCCCCCCCC[N+](C)(C)CCCNC(=O)C(CC)CCCC` (centres unmarked) [R *C7 branch, R^4 C12, X I] has an MIC [2, 17] of 12.5 µg/mL, an MIC [4, 18] of 1.56 µg/mL and an MIC [6, 19] of 50 µg/mL. The MIC [7, 20] was 3.12 µg/mL and the MIC [10, 21] was 3.12 µg/mL.

`CCCCCCCCCCCCCC[N+](C)(C)CCCNC(=O)CCCCCCC.[Cl-]` [R C7, R^4 C14, X Cl, 3-Octaneamidopropyldimethyltetradecyl ammonium chloride] was tested, and the MIC [2, 17] was 3.12 µg/mL, the MIC [4, 18] was 0.78 µg/mL and the MIC [6, 19] was 50 µg/mL. It also gave an MIC [7, 20] of 3.12 µg/mL and an MIC [10, 21] of 1.56 µg/mL.

`CCCCCCCCCCCC[N+](C)(C)CCCNC(=O)CCCCCCCC` [R C8, R^4 C12, X I] was tested, and the MIC [2, 17] was 12.5 µg/mL, the MIC [4, 18] was 0.78 µg/mL and the MIC [6, 19] was 12.5 µg/mL. For the same molecule, the MIC [7, 20] was 1.56 µg/mL and the MIC [10, 21] was 1.56 µg/mL.

Molecule `CCCCCCCCCCCCCC[N+](C)(C)CCCNC(=O)CCCCCCCC.[Cl-]` [R C8, R^4 C14, X Cl, 3-Nonaneamidopropyldimethyltetradecyl ammonium chloride] has an MIC [2, 17] of 3.12 µg/mL, an MIC [4, 18] of 1.56 µg/mL and an MIC [6, 19] of 100 µg/mL. For the same molecule, the MIC [7, 20] was 1.56 µg/mL and the MIC [10, 21] was 0.78 µg/mL.

`CCCCCCCCCCCCCC[N+](C)(C)CCCNC(=O)CCCCCCCCC.[Cl-]` [R C9, R^4 C14, X Cl, 3-Decaneamidopropyldimethyltetradecyl ammonium chloride] was tested, and the MIC [2, 17] was 6.25 µg/mL, the MIC [4, 18] was 3.12 µg/mL and the MIC [6, 19] was 100 µg/mL. For the same molecule, the MIC [7, 20] was 3.12 µg/mL and the MIC [10, 21] was 6.25 µg/mL.

`CCCCCCCCCCCC(=O)NCCC[N+](C)(C)C` [R C11, R^4 C1, X I, reference compound] was tested, and the MIC [2, 17] was 50 µg/mL, the MIC [4, 18] was 50 µg/mL and the MIC [6, 19] was 50 µg/mL. For the same molecule, the MIC [7, 20] was 50 µg/mL and the MIC [10, 21] was 50 µg/mL.

With `CCCCCCCCCCCCCC[N+](C)(C)CCCNC(=O)CCCCCCCCCCC.[Cl-]` [R C11, R^4 C14, X Cl, 3-Dodecaneamidopropyldimethyltetradecyl ammonium chloride] the MIC [2, 17] was 25 µg/mL, the MIC [4, 18] was 6.25 µg/mL and the MIC [6, 19] was 100 µg/mL. It also gave an MIC [7, 20] of 25 µg/mL and an MIC [10, 21] of 12.5 µg/mL.

`CCCC[N+](CC)(CC)CCNC(=O)C12CC3CC(CC(C3)C1)C2` [R^4 =C4 H9, reference compound] showed an MIC [1] of 100 µg/mL, an MIC [2, 12] of 50 µg/mL and an MIC [3] of 50 µg/mL. It also gave an MIC [4, 13] of 100 µg/mL, an MIC [5] of 100 µg/mL and an MIC [7, 15] of 100 µg/mL. The MIC [8] was 100 µg/mL.

In the case of `CCCCCC[N+](CC)(CC)CCNC(=O)C12CC3CC(CC(C3)C1)C2` [R^4 =C6 H13, reference compound], the MIC [1] is reported as 50 µg/mL, the MIC [2, 12] is reported as 50 µg/mL and the MIC [3] is reported as 50 µg/mL. The MIC [4, 13] was 100 µg/mL, the MIC [5] was 100 µg/mL and the MIC [7, 15] was 100 µg/mL. For the same molecule, the MIC [8] was 100 µg/mL.

`CCCCCCCC[N+](CC)(CC)CCNC(=O)C12CC3CC(CC(C3)C1)C2` [R^4 =C8 H17, reference compound] was tested, and the MIC [1] was 12.5 µg/mL, the MIC [2, 12] was 50 µg/mL and the MIC [3] was 50 µg/mL. For the same molecule, the MIC [4, 13] was 25 µg/mL, the MIC [5] was 25 µg/mL and the MIC [7, 15] was 50 µg/mL. For the same molecule, the MIC [8] was 100 µg/mL.

Molecule `CCCCCCCCCC[N+](CC)(CC)CCNC(=O)C12CC3CC(CC(C3)C1)C2` [R^4 =C10 H21] has an MIC [1] of 1.56 µg/mL, an MIC [2, 12] of 50 µg/mL and an MIC [3] of 6.25 µg/mL. It also gave an MIC [4, 13] of 3.12 µg/mL, an MIC [5] of 6.25 µg/mL and an MIC [7, 15] of 6.25 µg/mL. It also gave an MIC [8] of 50 µg/mL.

Work on `CCCCCCCCCCCC[N+](CC)(CC)CCNC(=O)C12CC3CC(CC(C3)C1)C2` [R^4 =C12 H25] yielded an MIC [1] of 0.39 µg/mL, an MIC [2, 12] of 3.12 µg/mL and an MIC [3] of 3.12 µg/mL. The MIC [4, 13] was 1.56 µg/mL, the MIC [5] was 0.78 µg/mL and the MIC [7, 15] was 1.56 µg/mL. It also gave an MIC [8] of 12.5 µg/mL.
